Experimental data as given in patent US7786164B2, “Lipophilic di(anticancer drug) compounds, compositions, and related methods” (Sonus Pharmaceuticals, Inc., priority 2005, dated 2010).
Read-outs that look alike come from different tables or passages of the source.

Tests used:
Assay type in all cases: cell-based
[1] = test system: NCI-H460 (non-small cell lung) cancer cell line; assay: In vitro cytotoxicity (GI50), Sulforhodamine B staining, NCI-H460; conditions: Homo sapiens, read-out: Drug concentration that produces 50% cell growth inhibition (GI50), H460 (NSCLC)
Method: (§1) In this example, the in vitro cytotoxicity, as measured by GI50 (50% of growth inhibition) values, was determined for representative lipophilic di(anticancer drug) compounds of the invention. The GI50 values of sebacate bis(7-ethylcamptothecin-10-yl)ester, sebacate bis(camptothecin-20-yl)ester, sebacate bis(paclitaxel-2′-yl)ester, and sebacate bis(docetaxel-2′-yl)ester, were measured in the following cancer cell lines: NCI-H460 (non-small cell lung), MDA-MB-231 (breast), […] (colon), and SKOV-3 (ovarian).
(§2) The study was performed using a solution of the lipophilic di(anticancer drug) compounds in DMSO (1 mM) diluted in the corresponding cell media. The cells were in contact with varying concentrations of the drug for a period of 48 hours. At the end of 48 hours, staining with Sulforhodamine B was performed to determine the number of viable cells and calculate the degree of cellular growth inhibition as compared to a control group.

[2] = test system: MDA-MB-231 (breast) cancer cell line; assay: In vitro cytotoxicity (GI50), Sulforhodamine B staining, MDA-MB-231; conditions: Homo sapiens, read-out: Drug concentration that produces 50% cell growth inhibition (GI50), MDA-MB-231 (BREAST)
Method: as §1, §2

[3] = test system: HCT-116 (colon) cancer cell line; assay: In vitro cytotoxicity (GI50), Sulforhodamine B staining, HCT-116; conditions: Homo sapiens, read-out: Drug concentration that produces 50% cell growth inhibition (GI50), HCT-116 (COLON)
Method: as §1, §2

[4] = test system: SKOV-3 (ovarian) cancer cell line; assay: In vitro cytotoxicity (GI50), Sulforhodamine B staining, SKOV-3; conditions: Homo sapiens, read-out: Drug concentration that produces 50% cell growth inhibition (GI50), SKOV-3 (OVARIAN)
Method: as §1, §2

[5] = NCI-H460, H460 (NSCLC) cells, 48 hours contact, Sulforhodamine B
[6] = MDA-MB-231 (breast) cells, 48 hours contact, Sulforhodamine B
[7] = HCT-116 (colon) cells, 48 hours contact, Sulforhodamine B
[8] = SK-OV-3, SKOV-3 (ovarian) cells, 48 hours contact, Sulforhodamine B

Structure (SMILES)	GI50 ([1]; NCI-H460, 48 h) [nM]	GI50 ([2]; MDA-MB-231, 48 h) [nM]	GI50 ([3]; HCT-116, 48 h) [nM]	GI50 ([4]; SK-OV-3, 48 h) [nM]	GI50 [1, 5] [nM]	GI50 [2, 6] [nM]	GI50 [3, 7] [nM]	GI50 [4, 8] [nM]
CCc1c2c(nc3ccc(OC(=O)CCCCCCCCC(=O)Oc4ccc5nc6c(c(CC)c5c4)Cn4c-6cc5c(c4=O)COC(=O)[C@]5(O)CC)cc13)-c1cc3c(c(=O)n1C2)COC(=O)[C@]3(O)CC [sebacate bis(7-ethylcamptothecin-10-yl), decanedioic acid bis[(4S)-4,11-diethyl-3,4,12,14-tetrahydro-4-hydroxy-3,14-dioxo-1H-pyrano[3′,4′:6,7]indolizino[1,2-b]quinolin-9-yl]ester]	3.03	303	4.58	8.53	–	–	–	–
CC[C@@]1(OC(=O)CCCCCCCCC(=O)O[C@]2(CC)C(=O)OCc3c2cc2n(c3=O)Cc3cc4ccccc4nc3-2)C(=O)OCc2c1cc1n(c2=O)Cc2cc3ccccc3nc2-1 [sebacate bis(camptothecin-20-yl)ester, decanedioic acid bis[(4S)-4-ethyl-3,4,12,14-tetrahydro-3,14-dioxo-1H-pyrano[3′,4′:6,7]indolizino[1,2-b]quinolin-4-yl]ester]	–	–	–	–	3150	9250	849	8540
CC(=O)O[C@@]12CO[C@@H]1C[C@H](O)[C@@]1(C)C(=O)[C@H](O)C3=C(C)[C@@H](OC(=O)[C@H](OC(=O)CCCCCCCCC(=O)O[C@@H](C(=O)O[C@H]4C[C@@]5(O)[C@@H](OC(=O)c6ccccc6)[C@@H]6[C@]7(OC(C)=O)CO[C@@H]7C[C@H](O)[C@@]6(C)C(=O)[C@H](O)C(=C4C)C5(C)C)[C@@H](NC(=O)OC(C)(C)C)c4ccccc4)[C@@H](NC(=O)OC(C)(C)C)c4ccccc4)C[C@@](O)([C@@H](OC(=O)c4ccccc4)[C@H]21)C3(C)C [sebacate bis(docetaxel-2′-yl)ester, decanedioic acid bis[(1R,2S)-1-[[[(2aR,4S,4aS,6R,9S,11S,12S,12aR,12bS)-12b-(acetyloxy)-12-(benzoyloxy)-2a,3,4,4a,5,6,9,10,11,12,12a,12b-dodecahydro-4,6,11-trihydroxy-4a,8,13,13-tetramethyl-5-oxo-7,11-methano-1H-cyclodeca[3,4]benz[1,2-b]oxet-9-yl]oxy]carbonyl]-2-[[(1,1-dimethylethoxy)carbonyl]amino]-2-phenylethyl]ester]	–	–	–	–	16.7	111	20.9	135
CC(=O)O[C@H]1C(=O)[C@@]2(C)[C@H]([C@H](OC(=O)c3ccccc3)[C@]3(O)C[C@H](OC(=O)[C@H](OC(=O)CCCCCCCCC(=O)O[C@@H](C(=O)O[C@H]4C[C@@]5(O)[C@@H](OC(=O)c6ccccc6)[C@@H]6[C@]7(OC(C)=O)CO[C@@H]7C[C@H](O)[C@@]6(C)C(=O)[C@H](OC(C)=O)C(=C4C)C5(C)C)[C@@H](NC(=O)c4ccccc4)c4ccccc4)[C@@H](NC(=O)c4ccccc4)c4ccccc4)C(C)=C1C3(C)C)[C@]1(OC(C)=O)CO[C@@H]1C[C@@H]2O [sebacate bis(paclitaxel-2′-yl)ester, decanedioic acid bis[(1R,2S)-2-(benzoylamino)-1-[[[(2aR,4S,4aS,6R,9S,11S,12S,12aR,12bS)-6,12b-bis(acetyloxy)-12-(benzoyloxy)-2a,3,4,4a,5,6,9,10,11,12,12a, 12b-dodecahydro-4,11-dihydroxy-4a,8,13,13-tetramethyl-5-oxo-7,11-methano-1H-cyclodeca[3,4]benz[1,2-b]oxet-9-yl]oxy]carbonyl]-2-phenylethyl]ester]	83.2	84.3	39.9	40.2	–	–	–	–
